For one experiment, the system named is MCP1/CCL2. Briefly: MCP1/CCL2 secretion by primary human hepatocytes exposed to free fatty acids and TNF-α (ELISA). It is filed as cell-based. The settings on record: for MCP1 expression relative to Control- Donor 1, Mean: donor 1 hepatocytes; for MCP1 expression relative to Control- Donor 1, Mean / MCP1 expression relative to Control- Donor 2, Mean: FFA + TNF-α, baseline subtracted; for MCP1 expression relative to Control- Donor 2, Mean: donor 2 hepatocytes; for MCP1/CCL2 secretion (baseline subtracted): primary human hepatocytes from two healthy donors, FFA 250 uM + TNF-α 1 ng/ml. Here is the method:
Hepatocyte lipotoxicity appears to be a central driver of hepatic cellular injury via oxidative stress and endoplasmic reticulum (ER) stress. The ability of amino acids to influence steatosis (lipid accumulation) and inflammation in hepatocytes was assessed using human primary hepatocytes (Lonza, TRL).
Primary hepatocytes lot nos. from two healthy human donors were seeded on day 0 at density of 6e04 cells in 96 well optical microplates (Thermofisher) in hepatocyte plating media (William's E medium (Gibco) supplemented with 10% heat-inactivated FBS (Atlanta Bio), 2 mM Glutamax (Gibco) and 0.2% Primocin (InVivoGen) and incubated for 6 hours at 37° C., 5% CO2. After 6 hours, cells were washed twice and incubated overnight at 37° C., 5% CO2 with Hepatocytes defined medium (Corning) supplemented with 2 mM Glutamax (Gibco) and 1× Penicillin/Streptomycin. On day 1, cells were washed twice and incubated for 24 h in the hepatocyte culture media in the same conditions described above.
On day 2, cells were washed twice with DPBS 1× (Gibco) and maintained in amino acid-free WEM (US Biologicals) containing a defined custom amino acid concentration based on the mean physiological concentrations in blood. The values are published in the Human Metabolome Database (Wishart D S, Tzur D, Knox C, et al., HMDB: the Human Metabolome Database. Nucleic Acids Res. January 2007; 35(Database issue):D521-6. 17202168; which is hereby incorporated by reference in its entirety). This custom media is supplemented with 11 mM Glucose, 0.272 mM Sodium Pyruvate, and a dose curve of defined amino acid compositions (i.e., vehicle, LIVRQ+N-acetylcysteine, LIVRQ, RQ+N-acetylcysteine, N-acetylcysteine alone, LIV, or individually with L-Leucine, L-Isoleucine, L-Valine, L-Arginine, L-Glutamine, and L-Cysteine) at various ranges of concentrations. Cells were maintained in this defined media for 24 hours at 37° C., 5% CO2.
After pre-treatment, cells were exposed to free fatty acids (FFA) at 250 uM with a ratio of 2:1 (Oleate:Palmitate) supplemented with TNF-α (Thermofisher) at 1 ng/ml or vehicle. Cells were incubated with the FFAs mixture and the different amino acids combinations for 24 hours at 37° C., 5% CO2. After 24 hours incubation, media was removed for cytokine analysis and replaced by fresh media containing the same stimulus conditions and amino acid concentrations. Cells were incubated for an additional 48 hours for a total of 72 hours of FFA and TNFα stimulation.
Human CCL2 (MCP-1) was measured by ELISA (Human […] DuoSet ELISA, R&D Systems) at ⅕ or 1/10 dilution in 1× Reagent Diluent (Reagent Ancillary Kit 2, R&D Systems). Data were normalized to the specific per well cell density determined by nuclei count stained by Hoechst 3342 (Life technologies) in the fluorescence microscopy described below.
(In general: An ELISA detects its analyte on a solid surface through an enzyme-linked reagent.)

Another experiment has as its system CCL18. Briefly: IL-4 induced CCL18 secretion in primary human monocyte-derived macrophages (ELISA). It is filed as cell-based. The settings on record: for Donor 1 CCL18 Measurements Mean / Donor 2 CCL18 Measurements Mean: relative to vehicle control; for CCL18 Measurements: Mean (fold change relative to vehicle control): IL-4 induced; for IL-4 induced CCL18 secretion (fold change relative to vehicle control): macrophages. As for the experimental part: Lymphocytes were purified from unpurified buffy coats (Research Blood Components) using Lymphocyte Separation Medium (Corning). After centrifugation, the PBMC layer was extracted and rinsed several times using Dulbecco's phosphate-buffered saline (DPBS; Gibco). After straining PBMCs through a 70 uM cell strainer, cells were resuspended and counted using a Cellometer K2 automated cell counter.
CD14+ cells were selected using EasySep™ Human CD14 Positive Selection Kit II ([…] Technologies) according to manufacturer-supplied protocols. Following isolation CD14+ cells were seeded into 10 cm tissue culture plates and differentiated into macrophages using M-CSF (Peprotech).
On day 0, primary human PBMC derived macrophages were seeded in Dulbecco's Modified Eagle Medium (DMEM) (Gibco) supplemented with penicillin-streptomycin (Hyclone) and 10% heat inactivated fetal bovine serum (HI-FBS) (Atlanta Bio) into 96-well microplates (ThermoFisher) and incubated overnight at 37° C., 5% CO2. On day 1, cells were washed once with DPBS and then treated with: • a. Amino acid free DMEM (US Biologicals) containing a defined custom amino acid concentration based on the mean physiological concentrations in blood based on values published in the Human Metabolome Database (HMDB), with 6 mM glucose, 1 mM sodium pyruvate, 10 mM HEPES, penicillin-streptomycin; or • b. The same medium described above with one amino acid or amino acid combination at various concentrations
On day 2, cells were treated with the same mediums described above supplemented with recombinant human interleukin-4 (IL-4; Peprotech). Control wells were treated with tofacitinib (Tocris) and IL-4, PBS with IL-4, or phosphate buffered saline (PBS) alone.
On day 3, the supernatant was collected and immediately frozen in −80° C. freezer. Cells were washed once with DPBS and viability was assessed using the WST-8 Cell Proliferation Cytotoxicity Assay (Dojindo) according to manufacturer-supplied protocol. Following the assay, cells were washed twice with PBS and fixed with 4% paraformaldehyde. Protein levels in supernatant samples were analyzed by ELISA for CCL18 using commercially available kits (R&D Systems) according to manufacturer-supplied protocols.

The mark [1] stands for this setting: Conc. 749 μM (baseline comparator).
Where [2] appears, read: Conc. 66 μM (baseline comparator).

Regarding `NC(=O)CC[C@H](N)C(=O)O` [Glutamine, L-Glutamine], the “MCP1 expression relative to Control- Donor 1, Mean” value in the experiment with MCP1/CCL2 (setting [1]) was 0; in the experiment with MCP1/CCL2 (Conc. 3747 μM) it was −0.8981; in the experiment on MCP1/CCL2 (Conc. 11242 μM), −9.001; in the experiment with MCP1/CCL2 (Conc. 22484 μM), −21.8392. The “MCP1 expression relative to Control- Donor 2, Mean” value in the experiment on MCP1/CCL2 (setting [1]) is reported as 2.84E−14; with MCP1/CCL2 (Conc. 3747 μM), −45.0574; in the experiment with MCP1/CCL2 (Conc. 11242 μM), −90.6558; with MCP1/CCL2 (Conc. 22484 μM), −138.873. In the experiment on MCP1/CCL2, the “MCP1/CCL2 secretion (baseline subtracted)” value is listed as “significantly decrease”. The “Donor 1 CCL18 Measurements Mean” value is 1.382 fold change in the experiment on CCL18 (Donor 1, Conc. 749 μM); 1.492 fold change in the experiment on CCL18 (Donor 1, Conc. 3747 μM); 1.645 fold change in the experiment with CCL18 (Donor 1, Conc. 11242 μM); 1.992 fold change in the experiment on CCL18 (Donor 1, Conc. 22484 μM). The “Donor 2 CCL18 Measurements Mean” value in the experiment on CCL18 (Donor 2, Conc. 749 μM) amounted to 1.4 fold change; in the experiment on CCL18 (Donor 2, Conc. 3747 μM), 1.559 fold change; with CCL18 (Donor 2, Conc. 11242 μM), 1.857 fold change; in the experiment on CCL18 (Donor 2, Conc. 22484 μM), 2.219 fold change. Also, the “CCL18 Measurements: Mean (fold change relative to vehicle control)” value worked out at 1.56 fold change in the experiment on CCL18 (Donor 3, Conc. 749 μM); 1.606 fold change in the experiment with CCL18 (Donor 3, Conc. 3747 μM); 2.428 fold change with CCL18 (Donor 3, Conc. 11242 μM); 2.33 fold change in the experiment on CCL18 (Donor 3, Conc. 22484 μM). For the same molecule, the “IL-4 induced CCL18 secretion (fold change relative to vehicle control)” value with CCL18 (Donor 1), with CCL18 (Donor 2) and in the experiment with CCL18 (Donor 3) was “significantly increased” throughout.

Turning to `CC[C@H](C)[C@H](N)C(=O)O` [Isoleucine, L-Isoleucine], the “MCP1 expression relative to Control- Donor 1, Mean” value is −1.2E−15 in the experiment with MCP1/CCL2 (setting [2]), −0.3073 with MCP1/CCL2 (Conc. 1328 μM), −2.417 with MCP1/CCL2 (Conc. 3320 μM) and −0.205 in the experiment on MCP1/CCL2 (Conc. 6639 μM). Also, the “MCP1 expression relative to Control- Donor 2, Mean” value is given as 0 in the experiment on MCP1/CCL2 (setting [2]), 26.62 in the experiment with MCP1/CCL2 (Conc. 1328 μM), −5.645 with MCP1/CCL2 (Conc. 3320 μM) and 18.62 with MCP1/CCL2 (Conc. 6639 μM). In addition, the “MCP1/CCL2 secretion (baseline subtracted)” value with MCP1/CCL2 was “did not have an effect”. Also, the “Donor 1 CCL18 Measurements Mean” value in the experiment with CCL18 (Donor 1, Conc. 66 μM) amounted to 1.07 fold change; with CCL18 (Donor 1, Conc. 1328 μM), 1.12 fold change; in the experiment with CCL18 (Donor 1, Conc. 3320 μM), 1.181 fold change; in the experiment on CCL18 (Donor 1, Conc. 6639 μM), 0.9823 fold change. Further, the “Donor 2 CCL18 Measurements Mean” value with CCL18 (Donor 2, Conc. 66 μM) amounted to 1.204 fold change; in the experiment on CCL18 (Donor 2, Conc. 1328 μM), 1.461 fold change; with CCL18 (Donor 2, Conc. 3320 μM), 1.503 fold change; in the experiment with CCL18 (Donor 2, Conc. 6639 μM) it was 1.685 fold change. The “CCL18 Measurements: Mean (fold change relative to vehicle control)” value in the experiment with CCL18 (Donor 3, Conc. 66 μM) worked out at 1.056 fold change; in the experiment with CCL18 (Donor 3, Conc. 1328 μM), 1.026 fold change; with CCL18 (Donor 3, Conc. 3320 μM) it was 1.431 fold change; with CCL18 (Donor 3, Conc. 6639 μM), 1.111 fold change. For the same molecule, the “IL-4 induced CCL18 secretion (fold change relative to vehicle control)” value with CCL18 (Donor 2) is reported as “significantly increased”.

Source of the values: patent US20210260010A1, “COMPOSITIONS AND METHODS FOR THE REDUCTION OR TREATMENT OF INFLAMMATION” (AXCELLA HEALTH INC., priority 2018, published 2021).
